pEC50: −log10 of the molar value.

For data set [1], the target named is T1, GST-RORγ LBD (263-509) (Homo sapiens, UniProt P51449).
T1 construct: GST-RORγ LBD ((263-509) (produced at ChemPartner))
T1 sequence (P51449 263-509): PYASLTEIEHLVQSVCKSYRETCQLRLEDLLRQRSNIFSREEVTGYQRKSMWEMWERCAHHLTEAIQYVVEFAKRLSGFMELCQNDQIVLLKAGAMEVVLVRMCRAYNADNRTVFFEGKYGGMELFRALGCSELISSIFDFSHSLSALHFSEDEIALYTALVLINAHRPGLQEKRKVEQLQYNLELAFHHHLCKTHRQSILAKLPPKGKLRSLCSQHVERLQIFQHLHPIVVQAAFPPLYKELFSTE
Kind of data set: TR-FRET assay of agonistic activity on RORγ receptor. In kind it is biochemical. Conditions: for pEC50: TR-FRET, GST-RORγ LBD with Biotin-SRC1; for Emax: maximum activation rate, TOP of fitted curve. Put shortly:
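GST-RORγ LBD (75 nM solution) mixed 1:1 with Biotin-SRC1 (4 nM solution), then with Eu anti-GST and SA-APC; compounds in 10-point 3-fold series from 10 mM stock, duplicate.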
On the technique in general: Time-resolved FRET reads energy transfer from a long-lived donor to a nearby acceptor.

In data set [2] the target is T2, RORγt (RORγ-LBD chimeric receptor) (Homo sapiens, UniProt P51449).
T2 construct: host or cells: HEK293T
T2 sequence (P51449 269-508 limits assumed): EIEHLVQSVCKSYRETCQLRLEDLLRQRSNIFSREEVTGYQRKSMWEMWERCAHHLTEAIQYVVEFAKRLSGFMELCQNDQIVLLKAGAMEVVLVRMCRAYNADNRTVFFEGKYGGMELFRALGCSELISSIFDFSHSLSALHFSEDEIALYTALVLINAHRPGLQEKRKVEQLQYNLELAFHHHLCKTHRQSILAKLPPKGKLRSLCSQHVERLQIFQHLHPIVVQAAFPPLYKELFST
Kind of data set: Luciferase reporter gene assay of RORγt agonistic activity in HEK293T cells. Type of data set: cell-based. On the set-up: Emax: dose or concentration left out as unconfirmed. To be noted: for pEC50: HEK293T, GAL4 luciferase reporter, read-out: EC50; for Emax: HEK-293T. In short, it runs like this:
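HEK293T cells co-transfected with GAL4-RORγ-LBD (pBIND) and GAL4-driven luciferase reporter (pGL4.35), then treated with compounds (10-point 3-fold series; 10 mM top DMSO stock). Luminescence (Steady-Glo) normalised to positive and vehicle controls as % activity; EC50 by log-concentration fit.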
A general note: A reporter such as luciferase makes a cellular process visible.

The test system of data set [3] is human PBMC (Th17 cells). Kind of data set: Th17 differentiation and IL-17 secretion in human PBMC. Type of data set: cell-based. Conditions: IL-17 ELISA after 48 hours; for Emax: maximum activation rate. The procedure: Test procedure: PBMC cells were first thawed and plated, and then stimulated with stimulating factors (anti-hCD28: 5 μg/mL; rhTGF-β1: 5 ng/mL; rhIL-6: 20 ng/mL; rhIL-23: 10 ng/Ml) to differentiate to Th17, while adding different concentrations of compounds. All test compounds were serially diluted at 3-fold dilution with DMSO, with 8 serial dilutions starting from the maximum concentration 3 μM. The supermatants were collected after 48 hours for IL-17 ELISA detection, and compared with the solvent group, to determine the activation rate of the compounds on Th17 cells to secrete IL-17. EC50 values were fitted with Graphad8.0, and the TOP values fitted by the software was Emax %.
In general terms: An ELISA detects its analyte on a solid surface through an enzyme-linked reagent.

Data set [4] is described as follows: Metabolic stability in human liver microsomes. Type of data set: in vitro ADME. Conditions: for microsomal CLint: 0.5 mg protein/mL. In short, it runs like this:
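Compound incubated at 37 °C with 0.5 mg protein/mL liver microsomes plus cofactors in PBS, sampled at 0–60 min, quenched with cold acetonitrile and quantified by HPLC-MS/MS (n=3). Half-life and Clint (μL/min/mg) come from the slope of ln(% remaining) versus time.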

Data set [5] in a line: Metabolic stability in mouse liver microsomes. In kind it is in vitro ADME, CD-1 mice. To be noted: for half-life: CD-1; for microsomal CLint: CD-1, 0.5 mg protein/mL. The text has this: According to standard methods of in vitro metabolic stability studies in the art, eg., the methods described in Kerns, Edward H. and Di Li (2008). Drug-like Properties: Concepts, Structure Design and Methods: from ADME to Toxicity Optimization. San Diego: Academic Press; Di, Li et al., Optimization of a Higher Throughput Microsomal Stability Screening Assay for Profiling Drug Discovery Candidates, J. Biomol. Screen. 2003, The method described in 8(4), 453, the liver microsomal metabolic stability test of the compounds of the present disclosure was carried out analogously as follows.
The incubation system contained 0.5 mg protein/mL microsomes, cofactors, and PBS, was pre-incubated at 37° C. for 3 min, and then added the substrate (i.e., the test compounds) to initiate the reaction. Samples were taken at 0, 1, 5, 10, 15, 20, 30 and 60 min from the start of the reaction, and an appropriate terminator was added to terminate the reaction.
The terminator was an ice acetonitrile solution containing 100 ng/mL tolbutamide and 100 ng/mL labetalol.
Sample treatment (n=3): each appropriate sample was added, vortexed and centrifuged at high speed. The supernatants were collected, and the substrate was detected by HPLC-MS/MS. The peak area at the 0 min was taken as 100%. The peak areas at other time points were converted to percentage of the remaining amount. The natural logarithms of the percentage of remaining amount at each time point was plotted against the incubation time, and the slope (−k) was calculated by linear regression. Then, Clint (uL/min/mg) and half-life (T½, min) of the compounds were calculated following the equation of the inherent clearance rate (Clint)=(k* volume of incubation solution)/mass of liver microsomes.

Data set [6] in a line: Pharmacokinetic (PK) assay in mice. In kind it is in vivo. To be noted: CD-1 mice; for AUC(0-t) / Cmax / half-life / Vd / bioavailability: mouse, plasma; for Vd: values marked *, read-out: Vss; for bioavailability: Po 5 mg/kg vs IV 1 mg/kg; for CL_obs: values marked **. As for the experimental part: The PK of each compound was determined as follows: 6 CD-1 mice (obtained from Shanghai Lingchang Biotechnology Co., Ltd.) were divided into two groups, 3 mice in each group. One group was administered intravenously at a dose of 1 mg/kg, and the vehicle was 5% DMSO/40% PEG400/55% (20% 3-CD); one group was administered by oral gavage at a dose of 5 mg/kg, and the vehicle was DMSO/1% methylcellulose (1:99). Blood samples were collected from saphenous vein of lower leg in each group at 0, 0.083, 0.25, 0.5, 1, 2, 4, 6, 8 and 24 h after administration. Approximately 40 μL of the blood samples were collected into anticoagulant tubes containing EDTA-K2. Immediately after collection, the tubes were inverted at least 5 times to ensure uniform mixing, and then placed on ice. The blood samples collected at each time point were centrifuged at 4° C., 8000 rpm for 5 minutes to obtain plasma. Another 1.5 mL centrifuge tube was marked with the compound name, animal number, and time point, and the plasma was transferred to this tube. The plasma was stored at −80° C. until analysis.
Compound concentrations in plasma were determined by UPLC-MS/MS method, and the pharmacokinetic parameters were calculated by Phoenix WinNolin 6.4 pharmacokinetic software on the obtained data.

As usually defined, the pEC50 is the negative decadic logarithm of the EC50, by convention in mol/L. Usually Emax stands for the size of the effect at its maximum, as opposed to the concentration needed. In general, half-life refers to the time in which the quantity being followed falls by half. Broadly, the microsomal CLint is the capacity of the preparation to metabolise the compound, expressed as a volume cleared per time. `COCC(C(=O)Nc1cc(Cl)c(-c2ccc(S(=O)(=O)C3CC3)cc2)c(Cl)c1)c1ccc(S(C)(=O)=O)cc1` (single isomer, unassigned) [Example 34, (S)—N-(2,6-dichloro-4′-(cyclopropylsulfonyl)-[1,1′-biphenyl]-4-yl)-3-methoxy-2-(4-(methylsulfonyl)phenyl)propanamide or (R)—N-(2,6-dichloro-4′-(cyclopropylsulfonyl)-[1,1′-biphenyl]-4-yl)-3-methoxy-2-(4-(methylsulfonyl)phenyl)propanamide]: the pEC50 in data set [1] is 8.29; in data set [2] it was 7.17; in data set [3], 7.24. Further, the values for the Emax in data set [1], in data set [2] and in data set [3] were 191%, 70.7% and 195%, respectively. The half-life was 88.6 min in data set [4] and more than 145 min in data set [5]. Moreover, the microsomal CLint in data set [4] was 15.6 µL/min/mg; in data set [5], less than 9.6 µL/min/mg. Further, the results for the “% Remaining (T = 60 min)” value in data set [4] and in data set [5] were 62.4% and 74.5%, respectively.
In data set [1], `CS(=O)(=O)c1ccc(C(CO)C(=O)Nc2cc(Cl)c(-c3ccc(S(=O)(=O)C4CC4)cc3)c(Cl)c2)cc1` (single isomer, unassigned) [Example 36, (S)—N-(2,6-Dichloro-4′-(cyclopropylsulfonyl)-[1,1′-biphenyl]-4-yl)-2-(4-(methylsulfonyl)phenyl)-3-hydroxypropionamide or (R)—N-(2,6-dichloro-4′-(cyclopropylsulfonyl)-[1,1′-biphenyl]-4-yl)-2-(4-(methylsulfonyl)phenyl)-3-hydroxypropionamide] showed a negative-log EC50 (pEC50) of 8.37 and an Emax of 200%. In addition, in data set [2], the pEC50 was 7.27 and the Emax was found to be 71.3%. In data set [3], this compound gave a negative-log EC50 (pEC50) of 7.44 and a maximal response (Emax) of 169%. For the same compound, in data set [4], the half-life is 101 min, the microsomal CLint turned out to be 13.7 µL/min/mg and the “% Remaining (T = 60 min)” value is 62.3%. Besides, in data set [5], the “% Remaining (T = 60 min)” value was determined as 83.9%, the half-life was more than 145 min and the microsomal CLint is less than 9.6 µL/min/mg.
A word on the AUC(0-t): it is exposure summed from dosing to a finite time, without extrapolation to infinity. One may read the Cmax as the maximum level reached in the sampled fluid or tissue. As usually defined, the bioavailability is dose-corrected exposure relative to a reference, in per cent. Consider `CCS(=O)(=O)c1ccc(C(COC)C(=O)Nc2cc(Cl)c(-c3ccc(S(C)(=O)=O)cc3)c(Cl)c2)cc1` (centres unmarked) [Example 15, N-(2,6-Dichloro-4′-(methylsulfonyl)-[1,1′-biphenyl]-4-yl)-2-(4-(ethylsulfonyl)phenyl)-3-methoxypropionamide], for which, in data set [2], the pEC50 was 6.69 and the maximal response (Emax) is 79.5%. In data set [3], this compound showed a negative logarithm of the EC50 (pEC50) of 7.35 and a maximal effect (Emax) of 197%. Further, in data set [4], the half-life came to 77.9 min, the microsomal CLint is 17.8 µL/min/mg and the “% Remaining (T = 60 min)” value was 58.7%. In addition, in data set [5], the “% Remaining (T = 60 min)” value turned out to be 82.60%, the half-life was more than 145 min and the microsomal CLint is less than 9.6 µL/min/mg. In addition, in data set [6] (IV 1 mg/kg), the AUC(0-t) was found to be 2300 ng·h/mL, the highest level (Cmax) was 1440 ng/mL, the half-life was 73.8 min and the Vd turned out to be 0.71 L/kg. The same compound had a bioavailability in data set [6] of 40%. Further, in data set [6] (Po 5 mg/kg), the AUC(0-t) came to 4240 ng·h/mL, the Cmax worked out at 1060 ng/mL and the half-life is 139 min.
As for `CCS(=O)(=O)c1ccc(-c2c(Cl)cc(NC(=O)C(COC)c3ccc(S(C)(=O)=O)cc3)cc2Cl)cc1` (centres unmarked) [Example 19, N-(2,6-Dichloro-4′-(ethylsulfonyl)-[1,1′-biphenyl]-4-yl)-3-methoxy-2-(4-(methylsulfonyl)phenyl)propionamide], in data set [2], the negative-log EC50 (pEC50) is 6.91 and the Emax amounted to 91.4%. In data set [3], the negative logarithm of the EC50 (pEC50) is 7.49 and the Emax was found to be 232%. In data set [4], the half-life was found to be 107 min, the intrinsic clearance (microsomal CLint) was found to be 13 µL/min/mg and the “% Remaining (T = 60 min)” value is 60%. Also, in data set [5], the “% Remaining (T = 60 min)” value stood at 23.10%, the half-life worked out at 29.2 min and the microsomal CLint is 47.4 µL/min/mg. In data set [6] (IV 1 mg/kg), the CL_obs is 26.0** mL/min/kg, the area under the curve AUC(0-t) came out at 647 ng·h/mL, the maximum concentration (Cmax) came to 932 ng/mL and the half-life was 37.8 min. Moreover, the Vd in data set [6] (IV 1 mg/kg) is 1.09 L/kg. The compound further displayed a bioavailability in data set [6] of 29.7%. In data set [6] (Po 5 mg/kg), this compound had an exposure AUC(0-t) of 924 ng·h/mL, a Cmax of 419 ng/mL and a half-life of 90.6 min.
On to `CCS(=O)(=O)c1ccc(CC(=O)Nc2cc(Cl)c(-c3ccc(S(=O)(=O)C4CC4)cc3)c(Cl)c2)nc1` [Example 21, N-(2,6-Dichloro-4′-(cyclopropylsulfonyl)-1,1′-biphenyl-4-yl)-2-(5-(ethylsulfonyl)pyridin-2-yl)acetamide], for which, in data set [2], the pEC50 was 7.14 and the maximum response (Emax) worked out at 51.2%. In data set [3], the negative logarithm of the EC50 (pEC50) is 6.74 and the Emax was determined as 297%. For the same compound, in data set [4], the half-life is more than 145 min, the intrinsic metabolic clearance (microsomal CLint) was less than 9.6 µL/min/mg and the “% Remaining (T = 60 min)” value amounted to 79.6%. In data set [5], the “% Remaining (T = 60 min)” value came out at 56%, the half-life worked out at 80.1 min and the microsomal CLint was 17.3 µL/min/mg. Moreover, in data set [6] (IV 1 mg/kg), the CL_obs is on record as 4.55** mL/min/kg, the AUC(0-t) came to 3630 ng·h/mL, the highest level (Cmax) was 716 ng/mL and the half-life was 251 min. Besides, the Vd in data set [6] (IV 1 mg/kg) stood at 1.45 L/kg. Moreover, the bioavailability in data set [6] came to 30.9%. Further, in data set [6] (Po 5 mg/kg), the AUC(0-t) turned out to be 5630 ng·h/mL, the peak concentration (Cmax) stood at 611 ng/mL and the half-life was 230 min.

The record behind these values is patent US20220402867A1, “SULFO-SUBSTITUTED BIARYL COMPOUND OR SALT THEREOF, PREPARATION METHOD THEREFOR, AND USE THEREOF” (Shanghai Litedd Co., Ltd., priority 2019, published 2022).
